Measured values published in patent US12522587B2, “Cancer treatments targeting cancer stem cells” (Remedy Plan, Inc., priority 2018, dated 2026).

Key:
[1] = tested on: UACC-62; experiment: Growth inhibition of cancer cell lines; format: cell-based; conditions: Homo sapiens; UACC-62, melanoma; 50% inhibition of growth
Source text: (§1) We tested the ability of compound I-1 to inhibit the growth of 12 additional cell lines, derived from a variety of different types of human cancer.

[2] = tested on: GIST T1; experiment: Growth inhibition of cancer cell lines; format: cell-based; conditions: Homo sapiens, GISTT1; GIST T1, gastrointestinal stromal tumor; 50% inhibition of growth
Source text: as §1

[3] = tested on: NCI-H69; experiment: Growth inhibition of cancer cell lines; format: cell-based; conditions: Homo sapiens; NCI-H69, small cell lung cancer; 50% inhibition of growth
Source text: as §1

[4] = tested on: PC-3; experiment: Growth inhibition of cancer cell lines; format: cell-based; conditions: Homo sapiens; PC-3, prostate adenocarcinoma; 50% inhibition of growth
Source text: as §1

[5] = tested on: MCF-7; experiment: Growth inhibition of cancer cell lines; format: cell-based; conditions: Homo sapiens, MCF7; MCF-7, breast cancer; 50% inhibition of growth
Source text: as §1

[6] = tested on: DLD-1; experiment: Growth inhibition of cancer cell lines; format: cell-based; conditions: Homo sapiens; DLD-1, Dukes' type C, colorectal adenocarcinoma; 50% inhibition of growth
Source text: as §1

[7] = tested on: A549; experiment: Growth inhibition of cancer cell lines; format: cell-based; conditions: Homo sapiens; A549, lung adenocarcinoma; 50% inhibition of growth
Source text: as §1

[8] = tested on: RL; experiment: Growth inhibition of cancer cell lines; format: cell-based; conditions: Homo sapiens, non-Hodgkin's lymphoma, 50% inhibition of growth
Source text: as §1

[9] = tested on: CFPAC-1; experiment: Growth inhibition of cancer cell lines; format: cell-based; conditions: Homo sapiens; CFPAC-1, pancreatic adenocarcinoma; 50% inhibition of growth
Source text: as §1

[10] = tested on: nanog; experiment: RT-qPCR of nanog RNA in AGS cells; format: cell-based, human; conditions: 10 μM, 4 days, FIG. 3
Description: Approximately 2.5×10^5 AGS cells were treated for 4 days with DMSO alone (no drug treatment) or 10 μM compound I-1 in DMSO. Cells were lysed and RNA was extracted using Zymo's Quick RNA-Microprep following manufacturer instructions. 100 ng of RNA were reverse transcribed using MuLV reverse transcriptase (New England Biolabs, USA). qPCR was performed using 2 ul of cDNA and Luna Universal qPCR Master Mix from NEB in a Stratagene Mx3005P.
AGS gastric cancer cells were treated with either DMSO alone (no drug treatment) or 10 µM of compound I-1 for 4 days. RNA was isolated and nanog RNA levels were measured by RT-qPCR.

Compound: CCC(=O)N1CCc2cc(-c3ccc(C(=O)NCc4cccnc4)cc3)ccc21 [Compound I-1]
- IC50 [1]: > 10 µM
- IC50 [2]: 0.98 µM
- IC50 [3]: 1.5 µM
- IC50 [4]: 5.52 µM
- IC50 [5]: 6 µM
- IC50 [6]: > 10 µM
- IC50 [7]: > 10 µM
- IC50 [8]: 0.13 µM
- IC50 [9]: 8.24 µM
- nanog expression in gastric cancer cells [10]: decreased
